One molecule from patent US20180353457A1, “ABIETANE DITERPENOID 7-ACETOXYROYLEANONES FOR USE IN CANCER TREATMENT” (University of South Carolina, priority 2017, published 2018) can be followed below.

One series relates to leukemia cell lines. The series is described as follows: NCI-60 one dose screen, leukemia cell lines. As to conditions: 10 μM, each leukemia cell line. The class given is cell-based. As to the method:
One dose and five dose cytotoxicity screening was performed by the NCI-60 screening program of the National Institutes of Health (NIH), which is known in the art and available from the NIH. The NCI-60 panel is a collection of cancer cell lines, from various diverse tumors, which was developed in the 1980s by the National Cancer Institute to aid screening efforts for cytotoxic or cytostatic compounds.
In these screens, 60 cell lines, were utilized to determine the cytotoxic effect of small molecules, natural products, and other drug candidates. […]
The five dose screen was performed by creating four 10-fold dilutions of the highest concentration of the diluted 7-acetoxyroyleanone made in the same manner as the one dose screen. […] The bound stain was then dissolved in 10 mM trizma base and the absorbance was read using an automated plate reader at 515 nm. […]

Series [1] relates to SK-MEL-5 (melanoma) cells.
The test system of series [2] is HCC-2996 (colon cancer) cells. The series is described as follows: NCI-60 five dose screen, HCC-2996.
Setting [3] is: HCC-2996, most sensitive cell line to growth inhibition.

For `CC(=O)O[C@@H]1C[C@H]2C(C)(C)CCC[C@]2(C)C2=C1C(=O)C(C(C)C)=C(O)C2=O` [7-acetoxyroyleanone], the “cell death versus growth inhibition” value in the series with leukemia cell lines is reported as “did not appear to induce cell death, but rather growth inhibition”. Further, the CC50 in series [1] was found to be 4.34 µM. In series [2] (setting [3]), this molecule displayed a GI50 of 0.405 µM and a TGI of 1.62 µM. The CC50 in series [2] (read-out: LC50, HCC-2996, Colon) amounted to 6.41 µM.
